Measurements from patent US11725015B2, “Macrocyclic compound and uses thereof” (President and Fellows of Harvard College, priority 2017, dated 2023).

Tests used:
[1] = tested on: FaDu subcutaneous xenograft; test: Antitumor effects in FaDu subcutaneous xenograft model in combination with cetuximab in mice; assay type: in vivo
Protocol: A human squamous cell carcinoma of the head and neck (SCCHN) cell line FaDu, which had been cultured in an RPMI-1640 medium containing 10% FBS, and penicillin and streptomycin, was adjusted to a concentration of 5×10^7 cells/mL with Hanks' Balanced Salt Solution to prepare a cell suspension. The cell suspension was inoculated in a volume of 100 μL into a subcutaneous part of a right flank of nude mice, 7 weeks of ages (CAnN.Cg-Foxnlnu/CrlCrlj, female, Charles River Laboratories Japan Inc.).
On the basis of the volumes of tumors obtained on the first day of administration, the mice were grouped such that averages of the tumor volumes were substantially equal among the groups. Each test compound was dissolved in DMSO and a solution was stored at the freezer before use. Immediately before the administration, the stock solution was diluted in saline with 100 μM of hydroxypropyl-β-cyclodextrin. […] Incidentally, the experiment was conducted on groups each consisting of 4 mice.

[2] = tested on: human gastric cancer cell line NCI-N87; test: NCI-N87 growth inhibition assay; assay type: cell-based; conditions: 3 days incubation, CellTiter-Glo
Protocol: In this assay, the growth inhibitory activities of test compounds in human gastric cancer cell lines NCI-N87 and MKN-28 were measured, respectively. NCI-N87 and MKN-28 cells were maintained in RPMI-1640 medium containing 10% FBS, penicillin and streptomycin in a 5% CO2 incubator (37° C.). To each well of a 96-well plate (Becton, Dickinson and Company, 353219), 100 μL of NCI-N87 or MKN-28 cell suspension adjusted to a concentration of 3×10^4 cells/mL with the culture medium was added, and the cells were incubated overnight in a 5% CO2 incubator (37° C.). On the next day, 100 μL of Compound (1) or Halichondrin B in three-fold dilution series suspended in the culture medium was added to each well, and the resultant was incubated for 3 days in a 5% CO2 incubator (37° C.). Then, cell viability was determined by CellTiter-Glo® Luminescent Cell Viability Assay (Promega) with EnVision 2103 Multilabel Reader (Perkin-Elmer, Wellesley, Mass.). Value of the wells containing cells without adding the test compounds was defined as 100% and the value of the wells containing no cells was defined as 0%. The concentrations of the test compound necessary for inhibiting the cell growth by 50% (i.e., an IC50 value) were calculated and are shown in Table 14.

[3] = tested on: human small bowel cancer cell line HuTu 80; test: HuTu 80 growth inhibition assay; assay type: cell-based; conditions: 3 days incubation, CellTiter-Glo
Protocol: In this assay, the growth inhibitory activities of test compounds in the human small bowel cancer cell line HuTu 80, which was isolated from duodenal tissue were measured. HuTu 80 cells were maintained in EMEM medium containing 10% FBS, penicillin and streptomycin in a 5% CO2 incubator (37° C.). To each well of a 96-well plate (Becton, Dickinson and Company, 353219), 100 μL of a HuTu80 cell suspension adjusted to a concentration of 3×10^4 cells/mL with the culture medium was added, and the cells were incubated overnight in a 5% CO2 incubator (37° C.). On the next day, 100 μL of Compound (1) or Halichondrin B in three-fold dilution series suspended in the culture medium was added to each well, and the resultant was incubated for 3 days in a 5% CO2 incubator (37° C.). Then, cell viability was determined by CellTiter-Glo® Luminescent Cell Viability Assay (Promega) with EnVision 2103 Multilabel Reader (Perkin-Elmer, Wellesley, Mass.). Value of the wells containing cells without adding the test compounds was defined as 100% and the value of the wells containing no cells was defined as 0%. The concentrations of the test compounds necessary for inhibiting the cell growth by 50% (i.e., an IC50 value) were calculated and are shown in Table 15.

[4] = tested on: human urothelial cancer cell line SW780; test: SW780 growth inhibition assay; assay type: cell-based; conditions: 3 days incubation, CellTiter-Glo
Protocol: In this assay, the growth inhibitory activities of test compounds in the human urothelial cancer cell line SW780 were measured. SW780 cells were maintained in RPMI-1640 medium containing 10% FBS, penicillin, and streptomycin in a 5% CO2 incubator (37° C.). To each well of a 96-well plate (Becton, Dickinson and Company, 353219), 100 μL of a SW780 cell suspension adjusted to a concentration of 3×10^4 cells/mL with the culture medium was added, and the cells were incubated overnight in a 5% CO2 incubator (37° C.). On the next day, 100 μL of Compound (1) or Halichondrin B in three-fold dilution series suspended in the culture medium was added to each well, and the resultant was incubated for 3 days in a 5% CO2 incubator (37° C.). Then, cell viability was determined by CellTiter-Glo® Luminescent Cell Viability Assay (Promega) with EnVision 2103 Multilabel Reader (Perkin-Elmer, Wellesley, Mass.). Value of the wells containing cells without adding the test compounds was defined as 100% and the value of the wells containing no cells was defined as 0%. The concentrations of the test compounds necessary for inhibiting the cell growth by 50% (i.e., an IC50 value) were calculated, and are shown in Table 16.

C=C1C[C@@H]2CC[C@@]34C[C@H]5O[C@H]6[C@@H](O3)[C@H]3O[C@H](CC[C@@H]3O[C@H]6C5O4)CC(=O)O[C@@H]3[C@@H](C)[C@@H]4O[C@@H]5C[C@]6(C[C@@H]7O[C@]8(C[C@H](C)[C@@H]9O[C@H](CN)[C@H](O)C[C@@H]9O8)C[C@H](C)[C@@H]7O6)O[C@@H]5C[C@@H]4O[C@H]3C[C@H]3O[C@@H](CC[C@@H]1O2)C[C@@H](C)C3=C [Compound (1)]
Tumor Regression on day 35 (%) ([1]; 0.05 mg/kg intravenously + cetuximab 20 mg/kg): 38% | Tumor Regression on day 35 (%) ([1]; 0.1 mg/kg intravenously + cetuximab 20 mg/kg): 60% | IC50 [2]: 0.002 nM | IC50 [3]: 0.019 nM | IC50 [4]: 0.017 nM

C=C1C[C@@H]2CC[C@@]34C[C@H]5O[C@H]6[C@@H](O3)[C@H]3O[C@H](CC[C@@H]3O[C@H]6[C@H]5O4)CC(=O)O[C@@H]3[C@@H](C)[C@@H]4O[C@@H]5C[C@]6(C[C@@H]7O[C@]8(C[C@H](C)[C@@H]9O[C@H]([C@@H](O)C[C@@H](O)CO)C[C@@H]9O8)C[C@H](C)[C@@H]7O6)O[C@@H]5C[C@@H]4O[C@H]3C[C@H]3O[C@@H](CC[C@@H]1O2)C[C@@H](C)C3=C [Halichondrin B, reference compound]
Tumor Regression on day 35 (%) ([1]; 0.0125 mg/kg intravenously + cetuximab 20 mg/kg): −38% | Tumor Regression on day 35 (%) ([1]; 0.025 mg/kg intravenously + cetuximab 20 mg/kg): −2% | IC50 [2]: 0.007 nM | IC50 [3]: 0.031 nM | IC50 [4]: 0.032 nM
